# Source: ChEMBL document CHEMBL1201862, “PubChem BioAssay data set” (2004)
# Active and inactive are the calls of the source.
# What was measured:
# [1] = target: T1, Low molecular weight phosphotyrosine protein phosphatase (Homo sapiens, UniProt P24666); type: functional; settings: read-out: IC50_Mean
# T1 sequence (P24666 whole entry): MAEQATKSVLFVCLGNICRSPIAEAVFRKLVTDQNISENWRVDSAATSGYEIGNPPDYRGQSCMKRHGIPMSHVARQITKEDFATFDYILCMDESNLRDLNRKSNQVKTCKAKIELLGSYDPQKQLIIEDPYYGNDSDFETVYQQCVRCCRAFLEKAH
# [2] = target: T1, Low molecular weight phosphotyrosine protein phosphatase; type: functional; settings: read-out: IC50_Mean; remark: listed apart in the source
# [3] = target: T2, Apoptotic protease-activating factor 1 (Homo sapiens, UniProt O14727); test: SAR analysis of small molecule Activators of Apaf-1 in a Fluorescent assay.; type: functional; settings: read-out: EC50_Mean;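 also: caspase-3 cleavage of fluorogenic Rh110 DEVD substrate downstream of apoptosome activation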
# T2 sequence (O14727 whole entry): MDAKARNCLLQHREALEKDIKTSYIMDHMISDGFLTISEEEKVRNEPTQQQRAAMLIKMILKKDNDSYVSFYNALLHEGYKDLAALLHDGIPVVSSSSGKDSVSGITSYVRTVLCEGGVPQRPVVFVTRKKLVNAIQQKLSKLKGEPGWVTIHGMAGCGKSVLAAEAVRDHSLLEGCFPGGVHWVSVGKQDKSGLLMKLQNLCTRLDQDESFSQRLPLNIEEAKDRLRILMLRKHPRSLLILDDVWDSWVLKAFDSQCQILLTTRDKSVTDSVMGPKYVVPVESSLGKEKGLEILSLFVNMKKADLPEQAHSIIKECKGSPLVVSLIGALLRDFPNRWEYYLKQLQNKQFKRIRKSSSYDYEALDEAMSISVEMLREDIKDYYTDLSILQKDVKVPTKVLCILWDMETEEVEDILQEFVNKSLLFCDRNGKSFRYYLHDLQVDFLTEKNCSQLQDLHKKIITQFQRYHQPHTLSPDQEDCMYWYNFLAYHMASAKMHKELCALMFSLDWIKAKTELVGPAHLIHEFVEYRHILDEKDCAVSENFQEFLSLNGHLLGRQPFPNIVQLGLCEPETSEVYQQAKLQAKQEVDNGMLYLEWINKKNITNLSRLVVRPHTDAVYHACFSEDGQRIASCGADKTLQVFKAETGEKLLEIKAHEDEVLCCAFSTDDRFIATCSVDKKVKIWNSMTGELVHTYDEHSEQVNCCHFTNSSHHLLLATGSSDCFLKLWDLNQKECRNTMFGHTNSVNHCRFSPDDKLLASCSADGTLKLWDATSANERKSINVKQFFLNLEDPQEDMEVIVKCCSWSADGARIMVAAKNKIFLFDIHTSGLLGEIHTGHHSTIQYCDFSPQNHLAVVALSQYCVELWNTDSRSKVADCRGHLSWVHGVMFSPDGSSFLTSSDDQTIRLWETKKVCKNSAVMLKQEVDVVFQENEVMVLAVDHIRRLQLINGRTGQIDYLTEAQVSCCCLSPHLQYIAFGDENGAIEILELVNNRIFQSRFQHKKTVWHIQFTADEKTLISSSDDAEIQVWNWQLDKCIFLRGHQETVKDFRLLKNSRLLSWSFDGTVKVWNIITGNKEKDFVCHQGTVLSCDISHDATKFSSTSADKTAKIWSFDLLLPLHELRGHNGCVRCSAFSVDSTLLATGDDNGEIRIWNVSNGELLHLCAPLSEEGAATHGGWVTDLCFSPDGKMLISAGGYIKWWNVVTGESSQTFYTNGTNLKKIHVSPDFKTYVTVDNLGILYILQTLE
# [4] = target: Adenosylmethionine-8-amino-7-oxononanoate aminotransferase (Mycobacterium tuberculosis, UniProt P9WQ81); test: Mycobacterium tuberculosis BioA enzyme inhibitor Measured in Biochemical System Using Plate Reader - 2163-02_Inhibitor_Dose_CherryPick_Activity.; type: functional, Mycobacterium tuberculosis UT205
# Adenosylmethionine-8-amino-7-oxononanoate aminotransferase, sequence (P9WQ81 whole entry): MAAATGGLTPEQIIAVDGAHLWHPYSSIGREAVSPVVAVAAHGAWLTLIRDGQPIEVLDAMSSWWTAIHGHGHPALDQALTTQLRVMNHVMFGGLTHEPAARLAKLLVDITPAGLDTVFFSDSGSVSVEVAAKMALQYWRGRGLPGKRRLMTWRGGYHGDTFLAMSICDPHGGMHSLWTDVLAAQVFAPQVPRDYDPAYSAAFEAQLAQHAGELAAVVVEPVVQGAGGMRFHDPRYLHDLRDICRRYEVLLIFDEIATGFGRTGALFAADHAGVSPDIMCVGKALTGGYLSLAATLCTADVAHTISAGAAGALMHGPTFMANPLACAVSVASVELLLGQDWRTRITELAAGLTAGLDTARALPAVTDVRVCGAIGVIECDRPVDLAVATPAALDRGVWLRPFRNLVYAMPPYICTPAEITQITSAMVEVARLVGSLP
# Beta-lactamase [5] = target: Beta-lactamase (Pseudomonas aeruginosa, UniProt Q79MP6);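 also: biochemical dose-response test of metallo-beta-lactamase enzyme inhibition, read out by epi-absorbance; purified recombinant IMP-1 metallo-beta-lactamase with nitrocefin as substrate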
# Beta-lactamase (Pseudomonas aeruginosa, UniProt Q79MP6), sequence (Q79MP6 whole entry): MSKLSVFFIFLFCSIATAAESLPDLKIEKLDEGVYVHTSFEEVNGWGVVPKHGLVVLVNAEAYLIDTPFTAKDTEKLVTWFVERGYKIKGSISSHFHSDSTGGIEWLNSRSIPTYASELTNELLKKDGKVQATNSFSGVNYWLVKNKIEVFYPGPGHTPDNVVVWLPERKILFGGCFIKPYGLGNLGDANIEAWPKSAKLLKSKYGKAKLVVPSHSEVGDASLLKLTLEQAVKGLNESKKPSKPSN
# Beta-lactamase [6] = target: Beta-lactamase (Salmonella choleraesuis (strain SC-B67), UniProt Q5J463)
# Beta-lactamase (Salmonella choleraesuis (strain SC-B67), UniProt Q5J463), sequence (Q5J463 whole entry): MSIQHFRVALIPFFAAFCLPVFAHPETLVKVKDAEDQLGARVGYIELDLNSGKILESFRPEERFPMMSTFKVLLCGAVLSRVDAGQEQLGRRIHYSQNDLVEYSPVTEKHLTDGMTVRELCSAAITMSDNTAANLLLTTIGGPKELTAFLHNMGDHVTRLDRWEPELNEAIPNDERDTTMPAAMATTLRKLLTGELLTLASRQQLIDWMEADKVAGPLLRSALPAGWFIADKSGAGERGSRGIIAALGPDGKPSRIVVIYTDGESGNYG
# [7] = target: T3, Small ubiquitin-related modifier 1 (Homo sapiens, UniProt P63165); test: SUMO1 protein-protein binding blockers, potency – biochemical, FRET, dose response (AID 624383); type: functional; settings: read-out: IC50_Mean
# T3 sequence (P63165 whole entry): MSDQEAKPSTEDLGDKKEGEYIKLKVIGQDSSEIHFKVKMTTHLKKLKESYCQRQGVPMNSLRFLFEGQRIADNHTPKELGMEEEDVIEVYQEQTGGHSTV
# [8] = target: T3, Small ubiquitin-related modifier 1; test: SUMO1 protein interaction blockers, potency – biochemical, fluorescence polarization, uHTS hits, dose response (AID 624382); type: functional; settings: read-out: IC50_Mean
# [9] = nonselective StAR promoter luciferase inhibitors – cell-based, luminescence, luciferase reporter, counter-screen for LRH-1 inverse agonist project, dose response (AID 651969); type: functional
# Steroidogenic factor 1 = Steroidogenic factor 1 (Homo sapiens, UniProt Q13285); test: Counterscreen for inverse agonists of the liver receptor homolog-1 (LRH-1; NR5A2): Luminescence-based cell-based high throughput dose response assay to identify inverse agonists of the Steroidogenic Factor 1 Nuclear Receptor (SF1; NR5A1).; type: functional
# Steroidogenic factor 1, sequence (Q13285 whole entry): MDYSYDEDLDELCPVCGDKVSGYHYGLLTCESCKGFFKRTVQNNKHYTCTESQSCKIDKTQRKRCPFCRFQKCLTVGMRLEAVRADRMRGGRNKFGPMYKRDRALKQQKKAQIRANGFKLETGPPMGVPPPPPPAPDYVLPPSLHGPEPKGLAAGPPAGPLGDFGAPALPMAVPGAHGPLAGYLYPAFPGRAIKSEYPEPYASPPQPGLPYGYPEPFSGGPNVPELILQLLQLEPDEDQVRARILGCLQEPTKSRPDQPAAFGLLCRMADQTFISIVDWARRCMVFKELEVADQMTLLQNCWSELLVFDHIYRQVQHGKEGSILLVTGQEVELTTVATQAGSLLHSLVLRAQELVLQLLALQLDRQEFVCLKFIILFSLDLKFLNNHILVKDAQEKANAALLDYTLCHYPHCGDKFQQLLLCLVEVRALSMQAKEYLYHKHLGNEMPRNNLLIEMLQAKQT
# [10] = target: Nuclear receptor subfamily 5 group A member 2 (Homo sapiens, UniProt O00482); type: functional, cell-based;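 also: HEK293T cells transfected with LRH-1 and a StAR promoter luciferase reporter; potency for inhibitors that lower LRH-1 driven reporter light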
# Nuclear receptor subfamily 5 group A member 2, sequence (O00482 whole entry): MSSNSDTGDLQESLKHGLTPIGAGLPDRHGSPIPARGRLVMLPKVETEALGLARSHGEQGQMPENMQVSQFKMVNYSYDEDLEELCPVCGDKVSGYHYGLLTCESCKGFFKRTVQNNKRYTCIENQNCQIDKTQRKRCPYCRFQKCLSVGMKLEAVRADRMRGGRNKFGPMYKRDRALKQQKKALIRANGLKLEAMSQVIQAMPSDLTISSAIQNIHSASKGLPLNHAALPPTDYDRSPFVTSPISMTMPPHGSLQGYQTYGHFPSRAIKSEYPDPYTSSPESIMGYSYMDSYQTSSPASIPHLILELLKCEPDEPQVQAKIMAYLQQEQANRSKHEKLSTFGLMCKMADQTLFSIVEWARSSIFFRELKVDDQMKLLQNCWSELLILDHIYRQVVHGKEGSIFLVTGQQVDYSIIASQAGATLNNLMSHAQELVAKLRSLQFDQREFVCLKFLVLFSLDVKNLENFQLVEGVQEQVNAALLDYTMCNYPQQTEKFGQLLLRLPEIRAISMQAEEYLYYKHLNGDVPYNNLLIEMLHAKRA
smiles,measurement,setting,value
O=C(N/N=C/c1ccc(OC(=O)c2cccc(F)c2)cc1)c1cccnc1,IC50,[1],14.4 µM (active)
same,IC50,[2],15.4 µM (active)
CN1c2ccccc2C(C)(C)C12CC(c1ccc(F)cc1)=NO2 (centres undefined),EC50,[3],> 100 µM (inactive)
CCc1nn(CC(=O)N2CCN(Cc3ccc4c(c3)OCO4)CC2)c(=O)c2cc3occc3n12,AC50,[4],1.01 µM (active)
COc1ccccc1-c1csc(-n2ncc(C#N)c2N)n1,IC50,Beta-lactamase [5],> 59.6 µM (inactive)
same,IC50,Beta-lactamase [6],> 59.6 µM (inactive)
same,IC50,[7],6.71 µM (active)
same,IC50,[8],> 66.6 µM (inactive)
Cc1cc(=O)oc2c(C)c(OCC(=O)NC3CC(C)(C)NC(C)(C)C3)ccc12,IC50,[9],35.9 µM (inactive)
same,IC50,Steroidogenic factor 1,35.9 µM (inactive)
same,IC50,[10],35.9 µM (inactive)
C/C(=N\Nc1cc(C(F)(F)F)ccc1Cl)c1ccncc1,IC50,[9],35.9 µM (inactive)
same,IC50,Steroidogenic factor 1,12 µM (inactive)
same,IC50,[10],26.2 µM (inactive)
